Literature values as cited in patent US20140004171A1, “TREATMENT OF ENDOMETRIOSIS BY INTRAVAGINAL ADMINISTRATION OF A LOW DOSE OF A SELECTIVE PROGESTERONE RECEPTOR MODULATOR (SPRM), ANTI-PROGESTIN, OR ANTI-PROGESTATIONAL AGENT” (ARSTAT Inc., priority 2011, published 2014).

Columns and labels:
liver enzymes = conditions: oral
[1] = tested on: endometrial lining of the uterus; conditions: oral
women with endometriosis [2] = conditions: oral, 50 mg daily for 6 months, nine women
[3] = tested on: uterine and fibroid volumes
women with endometriosis [4] = conditions: oral, 100 mg daily for three months
women with endometriosis [5] = conditions: oral, 5 mg daily for 6 months, seven women

Structure (SMILES): COCC(=O)[C@@]1(OC(C)=O)CC[C@H]2[C@@H]3CCC4=CC(=O)CCC4=C3[C@@H](c3ccc(N(C)C)cc3)C[C@@]21C [CDB-4124]
- Safety finding that suspended Phase III studies (liver enzymes): significant increases in liver enzymes

Structure (SMILES): COC[C@]1(OC)CC[C@H]2[C@@H]3CCC4=CC(=O)CCC4=C3[C@@H](c3ccc(/C=N/O)cc3)C[C@@]21C [asoprisnil]
- Safety finding that terminated Phase III studies [1]: changes in the endometrial lining of the uterus

Structure (SMILES): CC#C[C@]1(O)CC[C@H]2[C@@H]3CCC4=CC(=O)CCC4=C3[C@@H](c3ccc(N(C)C)cc3)C[C@@]21C [mifepristone]
- Amenorrhea without hypoestrogenism (women with endometriosis [2]): All patients
- Pelvic pain and uterine cramping improved (women with endometriosis [2]): all patients
- Regression of endometriosis (laparoscopic assessment of endometrial implants, AFS score) (women with endometriosis [2]): 55%
- Oral dose effective in the reduction of uterine and fibroid volumes and related symptoms [3]: ≥ 10 mg/day
- Incidence of amenorrhea ([3]; oral, 2.5 mg/day): lower incidence of amenorrhea
- Reduction of uterine volume ([3]; oral, 2.5 mg/day): appreciably smaller reduction of uterine volume
- Ability to reduce uterine volume and eliminate some fibroid-related symptoms ([3]; oral, 5 mg/day): limited
- Incidence of side effects (endometrial hyperplasia, hot flashes, elevated liver enzymes) ([3]; oral, 10 mg/day or higher): greater than desired
- Amenorrhea reported (women with endometriosis [4]; six normally cycling women with endometriosis): all study participants
- Change in the extent of endometriosis (follow-up laparoscopy) (women with endometriosis [4]; six women): no significant change
- Improvement in pelvic pain (women with endometriosis [4]; six women): all women
- Cyclic bleeding ceased (women with endometriosis [5]): all patients
- Decrease of mean endometriosis scores (women with endometriosis [5]): 20%
- Pelvic pain improved (women with endometriosis [5]): six of seven
